The test system of this experiment is chronic pain. The experiment in a line: Subjective pain reduction in a person with chronic pain (case report, scale of 0-100% reduction). It is filed as in vivo, human. Here is the method: The tasks included many different routine physical tasks, but particularly included typing and use of a computer mouse. […] DHEA (50 mg/day) was also taken alone orally for three weeks. […] The degree was subjective based on a scale of 0-100% reduction, where 0% was no pain reduction and 100% was total pain elimination.
In addition to treatment with DHEA alone, the person of Example 1, was also treated with Nortriptyline alone and with a combination of 75 mg per day DHEA and 10 mg per day Nortriptyline.

With `CNCCC=C1c2ccccc2CCc2ccccc21` [Nortriptyline], where the note is “alone, 10 mg per day”, the reduction in pain result is given as “about 20%”. Further, where the note is “alone, 25 and 50 mg doses”, the “reduction in pain compared with 10 mg per day” value is on record as “to greater extent”.

On to `C[C@]12CC[C@H](O)CC1=CC[C@@H]1[C@@H]2CC[C@]2(C)C(=O)CC[C@@H]12` [DHEA, dehydroepiandrosterone], for which the reduction in pain entry (50 mg/day alone orally for three weeks, by the end of the second week, subjective scale 0-100%) was “approximately 25%”. The “pain remaining, of the original pain” value (doses of 75 mg and I 00 mg for three weeks each, after 50 mg/day) was “less than 50%”.

As to `Cc1ccc(-c2cc(C(F)(F)F)nn2-c2ccc(S(N)(=O)=O)cc2)cc1` [celecoxib], the reduction in pain result (400 mg/day alone, subjective scale, 0% no pain reduction, 100% total pain elimination) is reported as “approximately 25%”.

For `NCC1(CC(=O)O)CCCCC1` [gabapeatin, gabapentin], the pain relief entry (treatment with the drug alone, person with 5 year history of chronic pain) was “did not result in pain relief”.
